In paper PMC6856977 (Molecular Pain, 2018):

What was measured:
rTRPV1 [1] = target: T1, rTRPV1 (Rattus norvegicus, UniProt O35433); assay: whole-cell patch clamp, block of capsaicin-evoked current; type: cell-based; conditions: channel block; capsaicin 100 nM; HEK293t, -60 mV, room temperature, pH 7.4
hTRPA1 [2] = target: hTRPA1 (Homo sapiens, UniProt O75762, C621S/C641S/C665S); assay: whole-cell patch clamp, evoked inward current; type: cell-based
hTRPA1 [3] = target: hTRPA1 (Homo sapiens, UniProt O75762); assay: whole-cell patch clamp, evoked inward current; type: cell-based
Chain of hTRPA1 (Homo sapiens, UniProt O75762) (O75762 whole entry): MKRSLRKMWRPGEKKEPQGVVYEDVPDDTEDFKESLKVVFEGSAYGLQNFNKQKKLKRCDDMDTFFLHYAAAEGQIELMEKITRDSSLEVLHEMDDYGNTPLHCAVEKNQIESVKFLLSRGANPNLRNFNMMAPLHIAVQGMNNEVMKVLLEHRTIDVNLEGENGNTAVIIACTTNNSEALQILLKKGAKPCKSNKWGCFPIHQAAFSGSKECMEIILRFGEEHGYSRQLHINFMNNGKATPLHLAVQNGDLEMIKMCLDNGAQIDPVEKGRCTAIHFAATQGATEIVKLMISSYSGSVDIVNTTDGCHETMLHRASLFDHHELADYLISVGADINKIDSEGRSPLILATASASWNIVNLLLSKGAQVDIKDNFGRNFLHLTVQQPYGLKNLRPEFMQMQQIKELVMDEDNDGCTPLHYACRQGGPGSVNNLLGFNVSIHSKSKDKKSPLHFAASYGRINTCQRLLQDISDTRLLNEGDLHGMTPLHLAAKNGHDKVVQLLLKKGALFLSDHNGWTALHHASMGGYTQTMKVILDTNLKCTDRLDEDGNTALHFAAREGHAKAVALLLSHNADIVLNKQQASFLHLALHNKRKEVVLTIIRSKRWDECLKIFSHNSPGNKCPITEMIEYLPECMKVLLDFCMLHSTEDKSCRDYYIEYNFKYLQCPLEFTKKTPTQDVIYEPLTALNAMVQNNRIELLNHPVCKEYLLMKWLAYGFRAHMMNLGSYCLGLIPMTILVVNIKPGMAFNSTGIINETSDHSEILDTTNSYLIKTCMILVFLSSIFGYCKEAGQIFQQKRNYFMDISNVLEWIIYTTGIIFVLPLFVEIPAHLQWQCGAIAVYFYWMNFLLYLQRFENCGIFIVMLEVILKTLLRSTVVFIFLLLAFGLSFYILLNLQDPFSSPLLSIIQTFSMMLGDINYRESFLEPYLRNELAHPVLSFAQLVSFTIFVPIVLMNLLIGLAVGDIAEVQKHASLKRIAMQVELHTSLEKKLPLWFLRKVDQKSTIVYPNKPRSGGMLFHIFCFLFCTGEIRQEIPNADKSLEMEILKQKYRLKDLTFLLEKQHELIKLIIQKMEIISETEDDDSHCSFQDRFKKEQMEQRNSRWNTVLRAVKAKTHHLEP

mTRPA1 = mTRPA1 (Mus musculus, UniProt Q8BLA8); assay: whole-cell patch clamp, evoked inward current
Chain of mTRPA1 (Q8BLA8 whole entry): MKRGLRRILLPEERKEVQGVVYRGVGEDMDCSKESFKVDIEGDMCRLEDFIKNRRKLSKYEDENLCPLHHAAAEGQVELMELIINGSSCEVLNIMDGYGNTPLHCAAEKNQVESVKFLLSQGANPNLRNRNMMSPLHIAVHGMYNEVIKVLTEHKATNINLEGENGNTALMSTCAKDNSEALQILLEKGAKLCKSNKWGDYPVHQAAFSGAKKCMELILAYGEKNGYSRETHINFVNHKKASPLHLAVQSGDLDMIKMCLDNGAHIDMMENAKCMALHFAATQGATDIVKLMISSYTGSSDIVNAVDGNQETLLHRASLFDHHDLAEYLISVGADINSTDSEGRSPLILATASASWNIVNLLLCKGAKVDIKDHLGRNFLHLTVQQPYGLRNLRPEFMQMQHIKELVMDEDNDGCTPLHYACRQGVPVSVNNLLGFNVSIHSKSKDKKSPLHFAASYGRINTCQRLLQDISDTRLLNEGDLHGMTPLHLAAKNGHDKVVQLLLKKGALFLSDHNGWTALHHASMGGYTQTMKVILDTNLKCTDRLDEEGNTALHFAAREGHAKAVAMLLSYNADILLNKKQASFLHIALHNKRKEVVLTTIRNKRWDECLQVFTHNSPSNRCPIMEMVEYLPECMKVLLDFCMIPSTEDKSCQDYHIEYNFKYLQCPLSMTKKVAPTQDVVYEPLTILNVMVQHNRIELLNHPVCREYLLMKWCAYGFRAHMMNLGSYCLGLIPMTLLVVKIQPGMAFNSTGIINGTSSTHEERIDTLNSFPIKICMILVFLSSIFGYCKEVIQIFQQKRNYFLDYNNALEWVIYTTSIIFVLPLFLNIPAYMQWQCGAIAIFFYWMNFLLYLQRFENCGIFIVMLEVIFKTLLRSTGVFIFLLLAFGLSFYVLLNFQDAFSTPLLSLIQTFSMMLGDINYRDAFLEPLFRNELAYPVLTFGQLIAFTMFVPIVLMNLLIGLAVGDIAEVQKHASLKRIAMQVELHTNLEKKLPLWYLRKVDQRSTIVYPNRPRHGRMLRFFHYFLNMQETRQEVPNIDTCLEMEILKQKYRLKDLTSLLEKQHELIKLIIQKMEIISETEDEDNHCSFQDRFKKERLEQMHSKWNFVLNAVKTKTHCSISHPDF

rTRPV1 [4] = target: T1, rTRPV1; assay: whole-cell patch clamp, evoked inward current; type: cell-based; conditions: agonist; 10% PG (1366 mM); HEK293t, -60 mV, room temperature, pH 7.4

T1 sequence (O35433 whole entry): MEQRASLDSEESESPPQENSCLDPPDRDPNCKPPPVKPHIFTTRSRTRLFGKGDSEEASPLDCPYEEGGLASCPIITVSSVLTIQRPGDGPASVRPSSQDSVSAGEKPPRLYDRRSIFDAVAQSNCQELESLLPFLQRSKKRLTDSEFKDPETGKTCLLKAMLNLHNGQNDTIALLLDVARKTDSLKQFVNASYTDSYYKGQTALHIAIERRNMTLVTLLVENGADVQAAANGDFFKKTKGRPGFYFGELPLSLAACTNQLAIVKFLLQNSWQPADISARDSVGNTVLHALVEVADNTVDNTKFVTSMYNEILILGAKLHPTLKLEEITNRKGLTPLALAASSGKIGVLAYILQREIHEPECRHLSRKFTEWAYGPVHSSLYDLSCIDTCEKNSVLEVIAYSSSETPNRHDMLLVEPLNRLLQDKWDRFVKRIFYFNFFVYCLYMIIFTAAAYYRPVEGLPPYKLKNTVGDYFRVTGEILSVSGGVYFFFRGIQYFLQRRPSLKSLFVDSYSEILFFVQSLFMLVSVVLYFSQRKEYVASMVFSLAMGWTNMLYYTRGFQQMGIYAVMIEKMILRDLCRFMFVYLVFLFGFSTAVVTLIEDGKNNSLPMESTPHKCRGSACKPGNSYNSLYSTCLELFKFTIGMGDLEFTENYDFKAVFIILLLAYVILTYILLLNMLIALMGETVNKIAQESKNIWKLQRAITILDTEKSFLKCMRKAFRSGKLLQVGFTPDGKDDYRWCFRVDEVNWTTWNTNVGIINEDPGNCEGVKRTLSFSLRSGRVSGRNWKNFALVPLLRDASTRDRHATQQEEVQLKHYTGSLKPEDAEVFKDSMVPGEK
Chain of hTRPA1 (Homo sapiens, UniProt O75762, C621S/C641S/C665S) (O75762 whole entry C621S/C641S/C665S): as the sequence (O75762 whole entry) above, with C621S, C641S, C665S counted along it

SMILES: CCOC(=O)c1cncn1[C@H](C)c1ccccc1 [etomidate]
- % current reduction at 100 μM (rTRPV1 [1]): 32 (95% CI: 20.2–43.8)
- EC50 (hTRPA1 [2]): ~1390 µM
- EC50 (hTRPA1 [3]): 73 µM
- EC50 (mTRPA1): 375 µM

SMILES: CC(O)CO (centres unmarked) [propylene glycol]
- current density at 10% PG (rTRPV1 [4]): 215 ± 26 pA/pF
